Assay results reported in US10520504B2, “Fluorescent polybranched probes for detecting bacteria and/or fungi in vitro and in vivo” (priority 2014, dated 2019).
“Also recorded” adds a separate entry of the source. Numbered stars: 1 amine (or outer) side, 2 acyl side, 3 side chain; on linkers, the order of the positions; unused ones are H or OH. Bridge positions count the residues as written; N and C are the ends. Square brackets hold non-standard residues; d marks the D form. Ends that are not written are not given here. Peptide text beside a SMILES is read from it. I, II: the chains in the order shown. * marks the point of attachment. ξ: configuration not given here. X2 = CN(C)c1ccc2c(c1)Oc1cc(N(C)C)ccc1C21OC(=O)c2ccc(C(=O)*)cc21; X1 = NC(=O)NC(COCCCN[*:1])(COCCCN[*:2])COCCCN[*:3]; NBD = O=[N+]([O-])c1ccc(*)c2nonc12; dDab = NCC[C@@H](N)C(=O)O; Nle = CCCC[C@H](N)C(=O)O; Dab = NCC[C@H](N)C(=O)O; AEEA = NCCOCCOCC(=O)O; ξDab = NCCC(N)C(=O)O; ξK = NCCCCC(N)C(=O)O; ξV = CC(C)C(N)C(=O)O; Ahx = NCCCCCC(=O)O; ξP = O=C(O)C1CCCN1; ξA = CC(N)C(=O)O

Tests used:
elastase = elastase (Homo sapiens, UniProt P08246); conditions: ex 525 nm, Em 580 nm
[1] = molecular target: T1, human neutrophil elastase (HNE) (Homo sapiens, UniProt P08246); test: Elastase dependent bacterial labelling in co-culture of bacteria and neutrophils; format: cell-based; conditions: for labelling of activated neutrophils: TAMRA signal; for elastase dependent bacterial labelling: bacteria with neutrophils
T1 construct: endogenous in cells; host or cells: isolated human neutrophils (co-culture with MSSA or P. aeruginosa)
T1 sequence (P08246 30-267): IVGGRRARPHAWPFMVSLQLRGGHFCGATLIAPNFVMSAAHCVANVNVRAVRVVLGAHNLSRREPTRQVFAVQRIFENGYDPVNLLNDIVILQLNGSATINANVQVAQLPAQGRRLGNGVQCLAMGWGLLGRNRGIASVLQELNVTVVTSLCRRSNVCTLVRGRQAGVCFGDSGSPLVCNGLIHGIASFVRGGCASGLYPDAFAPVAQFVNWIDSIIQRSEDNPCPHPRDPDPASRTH
Description: A first example of elastase sensitive probes (shown schematically in FIG. 16A) comprises methyl red (acting as a dark quencher) connected via the peptide sequence AAPV (SEQ. ID NO: 9). (acting as the enzyme cleavable peptide sequence of the cleavable linker) to 7-nitrobenz-2-oxa-1,3-diazole (NBD) and the ubiquicidin fragment UBI29-41 (together acting as the probe element). Accordingly, the NBD fluorescence is quenched by the methyl red and no fluorescent signal will be observed (i.e. the methyl red and NBD are acting as a FRET pair) and therefore, whether or not the probe is bound to any bacteria that may be present in the target area via UBI29-41, no signal is observed using confocal microscopy.
When the probe is in the presence of human neutrophil elastase (HNE), such as in inflamed tissue, HNE cleaves the peptide sequence of the linker, to thereby free the probe element from the methyl red quencher. Accordingly, the NBD fluorophore is no longer quenched and produces a fluorescent signal. In addition, due to the environmental sensitivity of the NBD, the signal produced is greatly amplified if the NBD is in a hydrophobic environment, such as within a cell membrane.

[2] = Stability in saline or ALI BALF by MALDI-TOF MS / FTMS; conditions: incubated 30 minutes
Procedure: Secondly we assessed stability of the probes in BALF from patients with ALI by FTMS and MALDI-TOF MS analysis. NBD-UBINle, NBD-UBIdend and NBD-PMX were incubated for 30 minutes with BALF (FIG. 13).
In vitro labelling was assessed on benchtop confocal in the presence of compound with bacteria and labelling was compared to NBD-UBINle which served as a reference control for bacterial labelling. […] For the ex vivo and in vivo ovine lung experiments each compound was assessed in a control lung segment (instilled with 2 ml PBS) or a bacterial segment (instilled with 2 ml of 2 optical density of bacteria). Following bacterial instillation, the compound was administered to the segment of interest and this was imaged by probe based FCFM.
Probe was added to saline or pooled BALF from patients with ALI incubated for 30 minutes. A ZipTip (C-18, 0.2 μL) with 5 μL MeCN (with 0.1% TFA as an additive) followed by 20 μL of H2O was washed. The ZipTip was loaded with the sample, washed and eluted into 5 μL of 80% aq. MeCN (with 0.1% TFA as an additive). The sample was analysed by MALDI-TOF (PerSeptive Biosystems Voyager DE™STR MALDI-TOF mass spectrometer (Applied Biosystems, Foster City, Calif.)).

Molecule: CC(C)C[C@H]1NC(=O)[C@@H](Cc2ccccc2)NC(=O)[C@@H](CCN)NC(=O)C(NC(=O)[C@H](CCN)NC(=O)[C@@H](NC(=O)COCCOCCNC(=O)C(CCCCNc2ccc([N+](=O)[O-])c3nonc23)NC(=O)C(NC(=O)C2CCCN2C(=O)C(C)NC(=O)C(C)NC(=O)c2ccc3c(c2)C2(OC3=O)c3ccc(N(C)C)cc3Oc3cc(N(C)C)ccc32)C(C)C)[C@@H](C)O)CCNC(=O)[C@@H]([C@H](C)O)NC(=O)[C@H](CCN)NC(=O)[C@H](CCN)NC1=O (stereo partly drawn) [TAMRA-AAPV-NBD-PMX] (X2-[ξA][ξA][ξP][ξV][ξK](NBD)[AEEA]T[Dab][ξDab][dDab][dF][dL][Dab][Dab][dT]; lactam 9-C)
- TAMRA fluorescence increase with elastase inhibitor (elastase): inhibited with an elastase inhibitor
- fluorescence of TAMRA following cleavage (elastase; elastase): increase in fluorescence
- bacterial labelling with unactivated neutrophils ([1]; P. aeruginosa): no labelling in the presence of unactivated neutrophils
- labelling of activated neutrophils [1]: labelling of activated neutrophils in an elastase independent manner
- labelling of activated neutrophils ([1]; listed as Example 2): labelled by the TAMRA moiety
- elastase dependent bacterial labelling [1]: bacterial labelling in an elastase dependent manner
- elastase dependent bacterial labelling ([1]; listed as Example 2): the bacteria are labelled by the probe element

Molecule: I: {NBD-AEEA}-TGRAKRR[Nle]QYNRR[AEEA] / II: {NBD-AEEA}-TGRAKRR[Nle]QYNRR[AEEA] / III: {NBD-AEEA}-TGRAKRR[Nle]QYNRR[AEEA] (linker I:C-II:C-III:C via X1) [NBD-UBIdend]
- stability in BALF from patients with ALI [2]: remains stable; also recorded: demonstrate stability

Molecule: CCCC[C@H](NC(=O)[C@H](CCCNC(=N)N)NC(=O)[C@H](CCCNC(=N)N)NC(=O)[C@H](CCCCN)NC(=O)[C@H](C)NC(=O)[C@H](CCCNC(=N)N)NC(=O)CNC(=O)[C@@H](NC(=O)CCCCCNc1ccc([N+](=O)[O-])c2nonc12)[C@@H](C)O)C(=O)N[C@@H](CCC(N)=O)C(=O)N[C@@H](Cc1ccc(O)cc1)C(=O)N[C@@H](CC(N)=O)C(=O)N[C@@H](CCCNC(=N)N)C(=O)N[C@@H](CCCNC(=N)N)C(N)=O [NBD-UBINle] ({NBD-Ahx}-TGRAKRR[Nle]QYNRR-NH2; N-terminus and C-terminus assumed)
- stability in BALF from patients with ALI [2]: degradation; also recorded: instability in lavage fluid

Molecule: Example 1: methyl red dark quencher connected via AAPV to NBD and ubiquicidin fragment UBI29-41 (also: methyl red quencher attached, side not given here, NBD and ubiquicidin fragment UBI29-41 attached, side not given here)
- elastase dependent bacterial labelling [1]: cleaved by neutrophil derived HNE and to label bacteria
- bacterial labelling with elastase inhibitor ([1]; sivelestat added to the medium): no labelling was observed
